Laboratory results: ChEMBL document CHEMBL1255386, “Early viral kinetics of telbivudine and entecavir: results of a 12-week randomized exploratory study with patients with HBeAg-positive chronic hepatitis B” (Antimicrob Agents Chemother, 2010)

Tests used:
Homo sapiens [1] = species: Homo sapiens; experiment: Toxicity in HBeAg-positive chronic hepatitis B patient assessed as insomnia at 600 mg/day; assay type: organism-based; conditions: in vivo
Homo sapiens [2] = species: Homo sapiens; experiment: Toxicity in HBeAg-positive chronic hepatitis B patient assessed as headache at 600 mg/day; assay type: organism-based; conditions: in vivo
Hepatitis B virus [3] = experiment: Antiviral activity against Hepatitis B virus in HBeAg-positive chronic hepatitis B patient assessed as HBV DNA level in serum at 0.5 mg/day after 12 weeks (reference value: 9.72 log10copies/ml); assay type: functional
Homo sapiens [4] = species: Homo sapiens; experiment: Toxicity in HBeAg-positive chronic hepatitis B patient assessed as vomiting at 600 mg/day; assay type: organism-based; conditions: in vivo
Homo sapiens [5] = species: Homo sapiens; experiment: Toxicity in HBeAg-positive chronic hepatitis B patient assessed as abdominal discomfort at 600 mg/day; assay type: organism-based, Abdomen; conditions: in vivo
Homo sapiens [6] = species: Homo sapiens; experiment: Toxicity in HBeAg-positive chronic hepatitis B patient assessed as vaginal hemorrhage at 600 mg/day; assay type: organism-based; conditions: in vivo
Homo sapiens [7] = species: Homo sapiens; experiment: Toxicity in HBeAg-positive chronic hepatitis B patient assessed as increase in AST level at 600 mg/day; assay type: organism-based; conditions: in vivo
Homo sapiens [8] = species: Homo sapiens; experiment: Toxicity in HBeAg-positive chronic hepatitis B patient assessed as peripheral neuropathy at 600 mg/day; assay type: organism-based; conditions: in vivo
Homo sapiens [9] = species: Homo sapiens; experiment: Toxicity in HBeAg-positive chronic hepatitis B patient assessed as gingival bleeding at 600 mg/day; assay type: organism-based; conditions: in vivo
Hepatitis B virus [10] = experiment: Antiviral activity against Hepatitis B virus in HBeAg-positive chronic hepatitis B patient assessed as mean viral clearance rate at 600 mg/day; assay type: functional
Homo sapiens [11] = species: Homo sapiens; experiment: Toxicity in HBeAg-positive chronic hepatitis B patient assessed as upper abdominal pain at 600 mg/day; assay type: organism-based, Abdomen; conditions: in vivo
Homo sapiens [12] = species: Homo sapiens; experiment: Toxicity in HBeAg-positive chronic hepatitis B patient assessed as proteinuria at 600 mg/day; assay type: organism-based; conditions: in vivo
Homo sapiens [13] = species: Homo sapiens; experiment: Toxicity in HBeAg-positive chronic hepatitis B patient assessed as increase in blood CK level at 600 mg/day; assay type: organism-based; conditions: in vivo
Homo sapiens [14] = species: Homo sapiens; experiment: Toxicity in HBeAg-positive chronic hepatitis B patient assessed as hyperphosphatemia at 600 mg/day; assay type: organism-based; conditions: in vivo
Hepatitis B virus [15] = experiment: Antiviral activity against Hepatitis B virus in HBeAg-positive chronic hepatitis B patient assessed as mean efficiency factor of blocking virus production at 600 mg/day; assay type: functional
Homo sapiens [16] = species: Homo sapiens; experiment: Toxicity in HBeAg-positive chronic hepatitis B patient assessed as increase in ALT level at 600 mg/day; assay type: organism-based; conditions: in vivo
Homo sapiens [17] = species: Homo sapiens; experiment: Toxicity in HBeAg-positive chronic hepatitis B patient assessed as myalgia at 600 mg/day; assay type: organism-based; conditions: in vivo
Homo sapiens [18] = species: Homo sapiens; experiment: Toxicity in HBeAg-positive chronic hepatitis B patient assessed as muscular weakness at 600 mg/day; assay type: organism-based; conditions: in vivo
Homo sapiens [19] = species: Homo sapiens; experiment: Toxicity in HBeAg-positive chronic hepatitis B patient assessed as upper respiratory tract infection at 600 mg/day; assay type: organism-based; conditions: in vivo
Homo sapiens [20] = species: Homo sapiens; experiment: Toxicity in HBeAg-positive chronic hepatitis B patient assessed as neutropenia at 600 mg/day; assay type: organism-based; conditions: in vivo
Homo sapiens [21] = species: Homo sapiens; experiment: Toxicity in HBeAg-positive chronic hepatitis B patient assessed as conjunctival hypermia at 600 mg/day; assay type: organism-based, Conjunctiva; conditions: in vivo
Homo sapiens [22] = species: Homo sapiens; experiment: Toxicity in HBeAg-positive chronic hepatitis B patient assessed as thrombocytopenia at 600 mg/day; assay type: organism-based; conditions: in vivo
Homo sapiens [23] = species: Homo sapiens; experiment: Hepatotoxicity in HBeAg-positive chronic hepatitis B patient assessed as reduction in alanine aminotransferase level at 600 mg/day after 12 weeks (reference value: 163.1 IU/liter); assay type: toxicity, organism-based; conditions: in vivo, 2016 h
Homo sapiens [24] = experiment: Toxicity in HBeAg-positive chronic hepatitis B patient assessed as facial edema at 600 mg/day; assay type: organism-based; conditions: in vivo
Homo sapiens [25] = species: Homo sapiens; experiment: Toxicity in HBeAg-positive chronic hepatitis B patient assessed as chest discomfort at 600 mg/day; assay type: organism-based; conditions: in vivo
Hepatitis B virus [26] = experiment: Antiviral activity against Hepatitis B virus in HBeAg-positive chronic hepatitis B patient assessed as mean rate of infected cell loss at 600 mg/day; assay type: functional
Homo sapiens [27] = species: Homo sapiens; experiment: Toxicity in HBeAg-positive chronic hepatitis B patient assessed as myringitis at 600 mg/day; assay type: organism-based; conditions: in vivo
Homo sapiens [28] = species: Homo sapiens; experiment: Toxicity in HBeAg-positive chronic hepatitis B patient assessed as nasophayngitis at 600 mg/day; assay type: organism-based; conditions: in vivo
Homo sapiens [29] = species: Homo sapiens; experiment: Toxicity in HBeAg-positive chronic hepatitis B patient assessed as nausea at 600 mg/day; assay type: organism-based; conditions: in vivo
Homo sapiens [30] = species: Homo sapiens; experiment: Toxicity in HBeAg-positive chronic hepatitis B patient assessed as dyspnea at 600 mg/day; assay type: organism-based; conditions: in vivo
Homo sapiens [31] = species: Homo sapiens; experiment: Toxicity in HBeAg-positive chronic hepatitis B patient assessed as hordeolum at 600 mg/day; assay type: organism-based; conditions: in vivo
Homo sapiens [32] = species: Homo sapiens; experiment: Toxicity in HBeAg-positive chronic hepatitis B patient assessed as vaginal hemorrhage at 0.5 mg/day; assay type: organism-based; conditions: in vivo
Homo sapiens [33] = species: Homo sapiens; experiment: Toxicity in HBeAg-positive chronic hepatitis B patient assessed as proteinuria at 0.5 mg/day; assay type: organism-based; conditions: in vivo
Homo sapiens [34] = species: Homo sapiens; experiment: Toxicity in HBeAg-positive chronic hepatitis B patient assessed as upper abdominal pain at 0.5 mg/day; assay type: organism-based, Abdomen; conditions: in vivo
Homo sapiens [35] = species: Homo sapiens; experiment: Hepatotoxicity in HBeAg-positive chronic hepatitis B patient assessed as reduction in alanine aminotransferase level at 0.5 mg/day after 12 weeks (reference value: 170.2 IU/liter); assay type: toxicity, organism-based; conditions: in vivo, 2016 h
Homo sapiens [36] = species: Homo sapiens; experiment: Toxicity in HBeAg-positive chronic hepatitis B patient assessed as nasophayngitis at 0.5 mg/day; assay type: organism-based; conditions: in vivo
Homo sapiens [37] = species: Homo sapiens; experiment: Toxicity in HBeAg-positive chronic hepatitis B patient assessed as dyspnea at 0.5 mg/day; assay type: organism-based; conditions: in vivo
Homo sapiens [38] = species: Homo sapiens; experiment: Toxicity in HBeAg-positive chronic hepatitis B patient assessed as neutropenia at 0.5 mg/day; assay type: organism-based; conditions: in vivo
Homo sapiens [39] = species: Homo sapiens; experiment: Toxicity in HBeAg-positive chronic hepatitis B patient assessed as peripheral neuropathy at 0.5 mg/day; assay type: organism-based; conditions: in vivo
Homo sapiens [40] = species: Homo sapiens; experiment: Toxicity in HBeAg-positive chronic hepatitis B patient assessed as nausea at 0.5 mg/day; assay type: organism-based; conditions: in vivo
Homo sapiens [41] = species: Homo sapiens; experiment: Toxicity in HBeAg-positive chronic hepatitis B patient assessed as muscular weakness at 0.5 mg/day; assay type: organism-based; conditions: in vivo
Homo sapiens [42] = species: Homo sapiens; experiment: Toxicity in HBeAg-positive chronic hepatitis B patient assessed as vomiting at 0.5 mg/day; assay type: organism-based; conditions: in vivo
Homo sapiens [43] = species: Homo sapiens; experiment: Toxicity in HBeAg-positive chronic hepatitis B patient assessed as thrombocytopenia at 0.5 mg/day; assay type: organism-based; conditions: in vivo
Homo sapiens [44] = species: Homo sapiens; experiment: Toxicity in HBeAg-positive chronic hepatitis B patient assessed as hyperphosphatemia at 0.5 mg/day; assay type: organism-based; conditions: in vivo
Hepatitis B virus [45] = experiment: Antiviral activity against Hepatitis B virus in HBeAg-positive chronic hepatitis B patient assessed as mean rate of infected cell loss at 0.5 mg/day; assay type: functional
Hepatitis B virus [46] = experiment: Antiviral activity against Hepatitis B virus in HBeAg-positive chronic hepatitis B patient assessed as HBV DNA level in serum at 600 mg/day after 12 weeks (reference value: 10.29 log10copies/ml); assay type: functional
Hepatitis B virus [47] = experiment: Antiviral activity against Hepatitis B virus in HBeAg-positive chronic hepatitis B patient assessed as mean efficiency factor of blocking virus production at 0.5 mg/day; assay type: functional
Homo sapiens [48] = species: Homo sapiens; experiment: Toxicity in HBeAg-positive chronic hepatitis B patient assessed as hordeolum at 0.5 mg/day; assay type: organism-based; conditions: in vivo
Homo sapiens [49] = species: Homo sapiens; experiment: Toxicity in HBeAg-positive chronic hepatitis B patient assessed as chest discomfort at 0.5 mg/day; assay type: organism-based; conditions: in vivo
Homo sapiens [50] = species: Homo sapiens; experiment: Toxicity in HBeAg-positive chronic hepatitis B patient assessed as increase in ALT level at 0.5 mg/day; assay type: organism-based; conditions: in vivo
Homo sapiens [51] = species: Homo sapiens; experiment: Toxicity in HBeAg-positive chronic hepatitis B patient assessed as abdominal discomfort at 0.5 mg/day; assay type: organism-based, Abdomen; conditions: in vivo
Homo sapiens [52] = species: Homo sapiens; experiment: Toxicity in HBeAg-positive chronic hepatitis B patient assessed as insomnia at 0.5 mg/day; assay type: organism-based; conditions: in vivo
Homo sapiens [53] = species: Homo sapiens; experiment: Toxicity in HBeAg-positive chronic hepatitis B patient assessed as myringitis at 0.5 mg/day; assay type: organism-based; conditions: in vivo
Hepatitis B virus [54] = experiment: Antiviral activity against Hepatitis B virus in HBeAg-positive chronic hepatitis B patient assessed as mean viral clearance rate at 0.5 mg/day; assay type: functional
Homo sapiens [55] = species: Homo sapiens; experiment: Toxicity in HBeAg-positive chronic hepatitis B patient assessed as headache at 0.5 mg/day; assay type: organism-based; conditions: in vivo
Homo sapiens [56] = species: Homo sapiens; experiment: Toxicity in HBeAg-positive chronic hepatitis B patient assessed as myalgia at 0.5 mg/day; assay type: organism-based; conditions: in vivo
Homo sapiens [57] = species: Homo sapiens; experiment: Toxicity in HBeAg-positive chronic hepatitis B patient assessed as gingival bleeding at 0.5 mg/day; assay type: organism-based; conditions: in vivo
Homo sapiens [58] = experiment: Toxicity in HBeAg-positive chronic hepatitis B patient assessed as facial edema at 0.5 mg/day; assay type: organism-based; conditions: in vivo
Homo sapiens [59] = species: Homo sapiens; experiment: Toxicity in HBeAg-positive chronic hepatitis B patient assessed as increase in blood CK level at 0.5 mg/day; assay type: organism-based; conditions: in vivo
Homo sapiens [60] = species: Homo sapiens; experiment: Toxicity in HBeAg-positive chronic hepatitis B patient assessed as upper respiratory tract infection at 0.5 mg/day; assay type: organism-based; conditions: in vivo
Homo sapiens [61] = species: Homo sapiens; experiment: Toxicity in HBeAg-positive chronic hepatitis B patient assessed as conjunctival hypermia at 0.5 mg/day; assay type: organism-based, Conjunctiva; conditions: in vivo
Homo sapiens [62] = species: Homo sapiens; experiment: Toxicity in HBeAg-positive chronic hepatitis B patient assessed as increase in AST level at 0.5 mg/day; assay type: organism-based; conditions: in vivo

## Cc1cn([C@@H]2C[C@@H](O)[C@H](CO)O2)c(=O)[nH]c1=O [TELBIVUDINE]
Homo sapiens [1]
  Activity: 0%
Homo sapiens [2]
  Activity: 0%
Hepatitis B virus [3]
  Activity: 6.6
Homo sapiens [4]
  Activity: 0%
Homo sapiens [5]
  Activity: 1%
Homo sapiens [6]
  Activity: 0%
Homo sapiens [7]
  Activity: 1%
Homo sapiens [8]
  Activity: Non-toxic
Homo sapiens [9]
  Activity: 1%
Hepatitis B virus [10]
  Activity: 0.809 day⁻¹
Homo sapiens [11]
  Activity: 1%
Homo sapiens [12]
  Activity: 0%
Homo sapiens [13]
  Activity: 0%
Homo sapiens [14]
  Activity: 1%
Hepatitis B virus [15]
  Activity: 99.1%
Homo sapiens [16]
  Activity: 3%
Homo sapiens [17]
  Activity: 1%
Homo sapiens [18]
  Activity: Non-toxic
Homo sapiens [19]
  Activity: 1%
Homo sapiens [20]
  Activity: 1%
Homo sapiens [21]
  Activity: 1%
Homo sapiens [22]
  Activity: 1%
Homo sapiens [23]
  Activity: 108 IU/L
Homo sapiens [24]
  Activity: 0%
Homo sapiens [25]
  Activity: 1%
Hepatitis B virus [26]
  Activity: 0.075 day⁻¹
Homo sapiens [27]
  Activity: 0%
Homo sapiens [28]
  Activity: 0%
Homo sapiens [29]
  Activity: 0%
Homo sapiens [30]
  Activity: 1%
Homo sapiens [31]
  Activity: 0%

## C=C1[C@H](CO)[C@@H](O)C[C@@H]1n1cnc2c(=O)[nH]c(N)nc21.O [ENTECAVIR]
Homo sapiens [32]
  Activity: 1%
Homo sapiens [33]
  Activity: 1%
Homo sapiens [34]
  Activity: 0%
Homo sapiens [35]
  Activity: 116.3 IU/L
Homo sapiens [36]
  Activity: 1%
Homo sapiens [37]
  Activity: 0%
Homo sapiens [38]
  Activity: 0%
Homo sapiens [39]
  Activity: Non-toxic
Homo sapiens [40]
  Activity: 2%
Homo sapiens [41]
  Activity: Non-toxic
Homo sapiens [42]
  Activity: 1%
Homo sapiens [43]
  Activity: 0%
Homo sapiens [44]
  Activity: 0%
Hepatitis B virus [45]
  Activity: 0.071 day⁻¹
Hepatitis B virus [46]
  Activity: 6.5
Hepatitis B virus [47]
  Activity: 99.2%
Homo sapiens [48]
  Activity: 1%
Homo sapiens [49]
  Activity: 1%
Homo sapiens [50]
  Activity: 1%
Homo sapiens [51]
  Activity: 0%
Homo sapiens [52]
  Activity: 1%
Homo sapiens [53]
  Activity: 1%
Hepatitis B virus [54]
  Activity: 1.002 day⁻¹
Homo sapiens [55]
  Activity: 1%
Homo sapiens [56]
  Activity: 0%
Homo sapiens [57]
  Activity: 0%
Homo sapiens [58]
  Activity: 1%
Homo sapiens [59]
  Activity: 3 patients
Homo sapiens [60]
  Activity: 2%
Homo sapiens [61]
  Activity: 0%
Homo sapiens [62]
  Activity: 0%
